In general, melting point refers to the temperature, or range, at which the solid turns liquid. In general, EC50 refers to the concentration that produces a half-maximal response.

Converted amounts (≈) assume the structure as drawn.

We go through 14 molecules from paper PMC6155626 (Molecules : A Journal of Synthetic Chemistry and Natural …, 2016).

Data set [1] has as its system Xanthomonas oryzae pv. oryzae. The experiment in a line: microbe, parasite or virus in culture. The class given is cell-based. The settings on record: for inhibition at 100 µg/mL / inhibition at 200 µg/mL / EC50: Xanthomonas oryzae; for inhibition at 100 µg/mL: read-out: Inhibition rate, X. oryzae, 100 μg/mL, average of three replicates; for inhibition at 200 µg/mL: read-out: Inhibition rate, X. oryzae, 200 μg/mL, average of three replicates.

The next data set relates to Ralstonia solanacearum. The data set can be described thus: microbe, parasite or virus in culture. In kind it is cell-based. The settings on record: Ralstonia solanacearum; for inhibition at 100 µg/mL / inhibition at 200 µg/mL: read-out: Inhibition rate; for EC50: R. solanacearum.
The test system of data set [2] is Xanthomonas axonopodis pv. citri. The data set can be described thus: microbe, parasite or virus in culture. The class given is cell-based. Particulars: Xanthomonas axonopodis; for inhibition at 100 µg/mL / inhibition at 200 µg/mL: read-out: Inhibition rate.

Turning to `O=S(=O)(Cc1ccccc1)c1nnc(COc2ccccc2)o1` [Compound 5I-14, 2-(Benzylsulfonyl)-5-(phenoxymethyl)-1,3,4-oxadiazole], the melting point is 95 to 96 °C. Further, in data set [1], the inhibition at 100 µg/mL stood at 78% and the inhibition at 200 µg/mL was determined as 95%. In the data set on Ralstonia solanacearum, the inhibition at 100 µg/mL turned out to be 37% and the inhibition at 200 µg/mL was determined as 69%. Besides, in data set [2], the inhibition at 100 µg/mL is 53% and the inhibition at 200 µg/mL came to 76%.

Regarding `CCS(=O)(=O)c1nnc(COc2ccc(F)cc2)s1` [Compound 5II-6, 2-(Ethylsulfonyl)-5-((4-fluorophenoxy)methyl)-1,3,4-thiadiazole], the melting point lay within 89 to 90 °C. In addition, in data set [1], the inhibition at 100 µg/mL came out at 55% and the inhibition at 200 µg/mL is 65%. In the data set on Ralstonia solanacearum, the inhibition at 100 µg/mL amounted to 12% and the inhibition at 200 µg/mL worked out at 7%. Further, in data set [2], the inhibition at 100 µg/mL stood at 18% and the inhibition at 200 µg/mL is 15%.

In the case of `Cc1cc(Cl)ccc1OCc1nnc(S(C)(=O)=O)o1` [Compound 5I-5, 2-((4-Chloro-2-methylphenoxy)methyl)-5-(methylsulfonyl)-1,3,4-oxadiazole], in data set [1], the EC50 turned out to be 1.67 ± 0.16 µg/mL (≈ 5.52 µM), the inhibition at 100 µg/mL came out at 100% and the inhibition at 200 µg/mL is 100%. Also, in the data set with Ralstonia solanacearum, a half-maximal effect (EC50) was put at 14.9 ± 1.27 µg/mL (≈ 49.3 µM), the inhibition at 100 µg/mL came out at 100% and the inhibition at 200 µg/mL worked out at 100%. In addition, in data set [2], the response was half-maximal at 96.8 ± 5.78 µg/mL (≈ 320 µM) (EC50), the inhibition at 100 µg/mL came out at 54% and the inhibition at 200 µg/mL was determined as 100%.

Regarding `CS(=O)(=O)c1nnc(COc2ccc(Cl)cc2)s1` [Compound 5II-2, 2-((4-Chlorophenoxy)methyl)-5-(methylsulfonyl)-1,3,4-thiadiazole], the melting point lay within 119 to 120 °C. The molecule further gave an Inhibition rate in data set [1] (X. oryzae, 200 μg/mL, average of three replicates) of 84%. Also, in data set [1], the inhibition at 100 µg/mL came to 73% and the inhibition at 200 µg/mL is 84 to 99%. For the same molecule, in the data set with Ralstonia solanacearum, the inhibition at 100 µg/mL amounted to 45% and the inhibition at 200 µg/mL is 56%. Moreover, in data set [2], the inhibition at 100 µg/mL came to 16% and the inhibition at 200 µg/mL was found to be 27%.

Take `Cc1cc(Cl)ccc1OCc1nnc(S(C)(=O)=O)s1` [Compound 5II-5, 2-((4-Chloro-2-methylphenoxy)methyl)-5-(methylsulfonyl)-1,3,4-thiadiazole]: the melting point was 160 to 161 °C. In addition, in data set [1], the inhibition at 100 µg/mL is 16% and the inhibition at 200 µg/mL stood at 42%. Further, in the data set on Ralstonia solanacearum, the inhibition at 100 µg/mL was determined as 8% and the inhibition at 200 µg/mL worked out at 9%. In data set [2], the inhibition at 100 µg/mL came out at 24% and the inhibition at 200 µg/mL amounted to 25%.

The molecule `CS(=O)(=O)c1nnc(COc2ccc(Br)cc2)o1` [Compound 5I-3, 2-((4-Bromophenoxy)methyl)-5-(methylsulfonyl)-1,3,4-oxadiazole] registered a melting point of 97 to 99 °C. In data set [1], the EC50 is 1.67 ± 0.22 µg/mL (≈ 5.01 µM), the inhibition at 100 µg/mL stood at 100% and the inhibition at 200 µg/mL worked out at 100%. For the same molecule, in the data set with Ralstonia solanacearum, a half-maximal effect (EC50) was put at 19.6 ± 0.98 µg/mL (≈ 58.9 µM), the inhibition at 100 µg/mL came to 100% and the inhibition at 200 µg/mL is 100%. In addition, in data set [2], it took 24.9 ± 2.52 µg/mL (≈ 74.7 µM) to reach a half-maximal effect (EC50), the inhibition at 100 µg/mL was found to be 90% and the inhibition at 200 µg/mL amounted to 91%.

For `Cc1cc(Cl)ccc1OCc1nnc(S(=O)(=O)Cc2ccccc2)s1` [Compound 5II-12, 2-(Benzylsulfonyl)-5-((4-chloro-2-methylphenoxy)methyl)-1,3,4-thiadiazole], the melting point lay within 125 to 126 °C. Further, in data set [1], the inhibition at 100 µg/mL is 0% and the inhibition at 200 µg/mL was found to be 5%. In addition, in the data set on Ralstonia solanacearum, the inhibition at 100 µg/mL is 0% and the inhibition at 200 µg/mL worked out at 0%. Further, in data set [2], the inhibition at 100 µg/mL amounted to 33% and the inhibition at 200 µg/mL is 10%.

`O=S(=O)(Cc1ccccc1)c1nnc(COc2ccc(F)cc2)s1` [Compound 5II-8, 2-(Benzylsulfonyl)-5-((4-fluorophenoxy)methyl)-1,3,4-thiadiazole] yielded a melting point of 132 to 134 °C. Besides, in data set [1], the inhibition at 100 µg/mL came to 8% and the inhibition at 200 µg/mL was 24%. In addition, in the data set with Ralstonia solanacearum, the inhibition at 100 µg/mL was 10% and the inhibition at 200 µg/mL came out at 30%. In data set [2], the inhibition at 100 µg/mL was found to be 21% and the inhibition at 200 µg/mL worked out at 24%.

The molecule `O=S(=O)(Cc1ccccc1)c1nnc(COc2ccc(Cl)cc2)o1` [Compound 5I-10, 2-(Benzylsulfonyl)-5-((4-chlorophenoxy)methyl)-1,3,4-oxadiazole] had a melting point of 126 to 128 °C. For the same molecule, in data set [1], the inhibition at 100 µg/mL is 48% and the inhibition at 200 µg/mL came out at 90%. Moreover, in the data set on Ralstonia solanacearum, the inhibition at 100 µg/mL turned out to be 19% and the inhibition at 200 µg/mL was determined as 24%. In data set [2], the inhibition at 100 µg/mL is 62% and the inhibition at 200 µg/mL is 74%.

With `CCS(=O)(=O)c1nnc(COc2ccc(Cl)cc2Cl)s1` [Compound 5II-7, 2-((2,4-Dichlorophenoxy)methyl)-5-(ethylsulfonyl)-1,3,4-thiadiazole], the melting point lay within 127 to 128 °C. Also, in data set [1], the inhibition at 100 µg/mL was 13% and the inhibition at 200 µg/mL worked out at 20%. In addition, in the data set on Ralstonia solanacearum, the inhibition at 100 µg/mL was 0% and the inhibition at 200 µg/mL amounted to 0%. For the same molecule, in data set [2], the inhibition at 100 µg/mL is 6% and the inhibition at 200 µg/mL stood at 32%.

`O=S(=O)(Cc1ccccc1)c1nnc(COc2ccc(F)cc2)o1` [Compound 5I-9, 2-(Benzylsulfonyl)-5-((4-fluorophenoxy)methyl)-1,3,4-oxadiazole] registered a melting point of 94 to 96 °C. Further, in data set [1], the inhibition at 100 µg/mL came to 100% and the inhibition at 200 µg/mL is 100%. In addition, in the data set with Ralstonia solanacearum, the inhibition at 100 µg/mL is 25% and the inhibition at 200 µg/mL is 33%. In addition, in data set [2], the inhibition at 100 µg/mL worked out at 50% and the inhibition at 200 µg/mL stood at 72%.

On to `CS(=O)(=O)c1nnc(COc2ccccc2)o1` [Compound 5I-6, 2-(Methylsulfonyl)-5-(phenoxymethyl)-1,3,4-oxadiazole], for which, in data set [1], a half-maximal response (EC50) required 1.86 ± 0.23 µg/mL (≈ 7.32 µM), the inhibition at 100 µg/mL is 100% and the inhibition at 200 µg/mL came to 100%. Further, in the data set on Ralstonia solanacearum, a half-maximal response (EC50) required 13.6 ± 2.12 µg/mL (≈ 53.3 µM), the inhibition at 100 µg/mL came to 100% and the inhibition at 200 µg/mL stood at 100%. Also, in data set [2], the response was half-maximal at 85 ± 4.32 µg/mL (≈ 334 µM) (EC50), the inhibition at 100 µg/mL came out at 57% and the inhibition at 200 µg/mL was found to be 88%.

As to `CCS(=O)(=O)c1nnc(COc2ccc(Cl)cc2Cl)o1` [Compound 5I-8, 2-((2,4-Dichlorophenoxy)methyl)-5-(ethylsulfonyl)-1,3,4-oxadiazole], the inhibition at 100 µg/mL in data set [1] was determined as 87%; with Ralstonia solanacearum it was 43%; in data set [2], 36%. Further, the values for the inhibition at 200 µg/mL (in data set [1]; in the data set with Ralstonia solanacearum; in data set [2]) were 100%, 97% and 62%, respectively.

Turning to `CCS(=O)(=O)c1nnc(COc2ccc(F)cc2)o1` [Compound 5I-7, 2-(Ethylsulfonyl)-5-((4-fluorophenoxy)methyl)-1,3,4-oxadiazole], the figures for the EC50 (in data set [1]; in the data set on Ralstonia solanacearum; in data set [2]) were 0.52 ± 0.16 µg/mL (≈ 1.82 µM), 7.75 ± 1.01 µg/mL (≈ 27.1 µM) and 52.2 ± 2.14 µg/mL (≈ 182 µM), respectively. In addition, the inhibition at 100 µg/mL amounted to 100% in data set [1], 99% in the data set on Ralstonia solanacearum and 53% in data set [2]. For the same molecule, the values for the inhibition at 200 µg/mL (in data set [1]; with Ralstonia solanacearum; in data set [2]) were 100%, 100% and 65%, respectively.
